Source: patent US20140275007A1, “OXAMAZIN ANTIBIOTICS” (priority 2013, published 2014)
Converted amounts (≈) assume the structure as drawn.

How the values were obtained:
Assay type in all cases: cell-based, Escherichia coli
[1] = test system: E. coli strain ECM6706 (pUCP24::SME-2); experiment: MIC, broth microdilution, isogenic E. coli panel, SME-2 strain; settings: for Ratio of MIC vs vector alone: strain ECM6706, pUCP24::SME-2 vs ECM6704
Experimental: (§1) Potency and spectrum of compound 1 was determined using the panel of isogenic engineered strains, each containing a plasmid carrying a cloned gene expressing a β-lactamase enzyme. The strain that contained the empty vector was included to evaluate the impact of individual β-lactamases on microbiological activity of compound 1 vs comparator antibiotics. The host strain was wild-type strain of Escherichia coli, ECM5497. The vector plasmid was pUCP24. […] MIC was assessed using broth microdilution method as recommended by the NCCLS (National Committee for Clinical Laboratory Standards. Methods for Dilution Antimicrobial Susceptibility Tests for Bacteria that Grow Aerobically—4th Edition. Approved Standard NCCLS Document M7-A4, Vol. 17, No. 2, NCCLS, Wayne, Pa., January 1997). In this assay multiple dilutions of drugs are being tested for the ability to inhibit growth of the test bacterial strains. The MIC assay is performed in microtiter plates. Antibiotics are diluted two-fold in the x axis, each column containing a single concentration of antibiotic. The assay is performed in MHB with a final bacterial inoculum of 5×10^5 CFU/mL (from an early-log phase culture). Microtiter plates are incubated during 20 h at 35° C. and are read using a microtiterplate reader (Molecular Devices) at 650 nm as well as visual observation using a microtiter plate reading mirror.

[2] = test system: E. coli strain ECM6704 (pUCP24, vector); experiment: MIC, broth microdilution, isogenic E. coli panel, empty vector strain; settings: for Ratio of MIC vs vector alone: strain ECM6704, pUCP24, vector (reference strain itself)
Experimental: as §1

[3] = test system: E. coli strain ECM6694 (pUCP24::CTX-M-15); experiment: MIC, broth microdilution, isogenic E. coli panel, CTX-M-15 strain; settings: for Ratio of MIC vs vector alone: strain ECM6694, pUCP24::CTX-M-15 vs ECM6704
Experimental: as §1

[4] = test system: E. coli strain ECM6713 (pUCP24::TEM-10); experiment: MIC, broth microdilution, isogenic E. coli panel, TEM-10 strain; settings: for Ratio of MIC vs vector alone: strain ECM6713, pUCP24::TEM-10 vs ECM6704
Experimental: as §1

[5] = test system: E. coli strain ECM6696 (pUCP24::NMC-A); experiment: MIC, broth microdilution, isogenic E. coli panel, NMC-A strain; settings: for Ratio of MIC vs vector alone: strain ECM6696, pUCP24::NMC-A vs ECM6704
Experimental: as §1

[6] = test system: E. coli strain ECM6711 (pUCP24::VIM-1); experiment: MIC, broth microdilution, isogenic E. coli panel, VIM-1 strain; settings: for Ratio of MIC vs vector alone: strain ECM6711, pUCP24::VIM-1 vs ECM6704
Experimental: as §1

[7] = test system: E. coli strain ECM6715 (pUCP24::AmpC); experiment: MIC, broth microdilution, isogenic E. coli panel, AmpC strain; settings: for Ratio of MIC vs vector alone: strain ECM6715, pUCP24::AmpC vs ECM6704
Experimental: as §1

[8] = test system: E. coli strain ECM6716 (pUCP24::OXA-48); experiment: MIC, broth microdilution, isogenic E. coli panel, OXA-48 strain; settings: for Ratio of MIC vs vector alone: strain ECM6716, pUCP24::OXA-48 vs ECM6704
Experimental: as §1

[9] = test system: E. coli strain ECM6703 (pUCP24::NDM-1); experiment: MIC, broth microdilution, isogenic E. coli panel, NDM-1 strain; settings: for Ratio of MIC vs vector alone: strain ECM6703, pUCP24::NDM-1 vs ECM6704
Experimental: as §1

[10] = test system: E. coli strain ECM6718 (pUCP24::SHV-5); experiment: microbe, parasite or virus in culture; settings: for Ratio of MIC vs vector alone: strain ECM6718, pUCP24::SHV-5 vs ECM6704
Experimental: as §1

[11] = test system: E. coli strain ECM6701 (pUCP24::KPC-2); experiment: microbe, parasite or virus in culture; settings: for Ratio of MIC vs vector alone: strain ECM6701, pUCP24::KPC-2 vs ECM6704
Experimental: as §1

[12] = test system: E. coli strains expressing individual β-lactamases; experiment: Impact of β-lactamases on microbiological activity, whole panel of isogenic engineered strains
Experimental: as §1
Table 2 contains MICs of compound 1 and comparator antibiotics for each test strain and Table 3 contains MIC ratios vs vector only control (strain ECM6704). β-Lactamases present in the test panel belonged to all four currently described classes of enzymes, A, B, C and D. These β-lactamases also represent the major groups of the most relevant enzymes.

[13] = strain ECM6706, pUCP24::SME-2, class A, carbapenemase
[14] = strain ECM6694, pUCP24::CTX-M-15, class A, ESBL
[15] = strain ECM6713, pUCP24::TEM-10, class A, ESBL
[16] = strain ECM6696, pUCP24::NMC-A, class A, carbapenemase
[17] = strain ECM6718, pUCP24::SHV-5, class A, ESBL
[18] = strain ECM6701, pUCP24::KPC-2, class A, carbapenemase
[19] = strain ECM6711, pUCP24::VIM-1, class B
[20] = strain ECM6715, pUCP24::AmpC, class C
[21] = strain ECM6703, pUCP24::NDM-1, class B

| Compound | MIC ([1]; Escherichia coli) [µg/mL] | MIC ([2]; Escherichia coli, 20 h) [µg/mL] | MIC ([3]; Escherichia coli) [µg/mL] | MIC ([4]; Escherichia coli) [µg/mL] | MIC ([5]; Escherichia coli) [µg/mL] | MIC ([6]; Escherichia coli) [µg/mL] | MIC ([7]; Escherichia coli) [µg/mL] | MIC ([8]; Escherichia coli) [µg/mL] | MIC ([9]; Escherichia coli) [µg/mL] | Ratio of MIC vs vector alone [5] [mg/L] | MIC ([10]; Escherichia coli) [µg/mL] | MIC ([11]; Escherichia coli) [µg/mL] | MIC [1, 13] [µg/mL] | MIC [3, 14] [µg/mL] | MIC [4, 15] [µg/mL] | MIC [5, 16] [µg/mL] | MIC [10, 17] [µg/mL] | MIC [11, 18] [µg/mL] | MIC [6, 19] [µg/mL] | MIC [7, 20] [µg/mL] | also measured |
| --- | --- | --- | --- | --- | --- | --- | --- | --- | --- | --- | --- | --- | --- | --- | --- | --- | --- | --- | --- | --- | --- |
| C[C@H]1[C@H](NC(=O)/C(=N\OC(C)(C)C(=O)O)c2csc(N)n2)C(=O)N1S(=O)(=O)O [AZTREONAM, aztreonam] | > 64 | 0.125 (≈ 0.287 µM) | 32 (≈ 73.5 µM) | > 64 | 64 (≈ 147 µM) | ≤ 0.06 | 8 (≈ 18.4 µM) | 0.125 (≈ 0.287 µM) | ≤ 0.06 |  |  |  |  |  |  |  |  |  |  |  |  |
| NC(=O)OC[C@@H]1[C@H](NC(=O)/C(=N\OCC(=O)O)c2csc(N)n2)C(=O)N1S(=O)(=O)O [CARUMONAM, carumonam] | 0.125 (≈ 0.268 µM) | ≤ 0.06 | 0.125 (≈ 0.268 µM) | 4 (≈ 8.58 µM) | 0.25 (≈ 0.536 µM) | ≤ 0.06 | 4 (≈ 8.58 µM) | ≤ 0.06 | ≤ 0.06 | 4 | 2 (≈ 4.29 µM) | 0.25 (≈ 0.536 µM) |  |  |  |  |  |  |  |  |  |
| CC(C)(O/N=C(\C(=O)N[C@@H]1C(=O)N2C(C(=O)[O-])=C(C[n+]3ccccc3)CS[C@H]12)c1csc(N)n1)C(=O)O [CEFTAZIDIME, ceftazidime] |  |  |  |  |  |  |  |  |  |  |  |  | 1 (≈ 1.83 µM) | 16 (≈ 29.3 µM) | 65 (≈ 119 µM) | 0.5 (≈ 0.915 µM) | 8 (≈ 14.6 µM) | 4 (≈ 7.32 µM) | >64 | 16 (≈ 29.3 µM) | MIC [9, 21]: >64 µg/mL |
| CC1(C)[C@H](NC(=O)/C(=N\OCC(=O)O)c2csc(N)n2)C(=O)N1OCC(=O)O [Compound 1, (S,Z)-2-(1-(2-aminothiazol-4-yl)-2-(1-(carboxymethoxy)-2,2-dimethyl-4-oxoazetidin-3-ylamino)-2-oxoethylideneaminooxy)acetic acid] | 1 (≈ 2.41 µM) | 2 (≈ 4.81 µM) | 1 (≈ 2.41 µM) | 16 (≈ 38.5 µM) | 1 (≈ 2.41 µM) | 1 (≈ 2.41 µM) | 2 (≈ 4.81 µM) | 2 (≈ 4.81 µM) | 1 (≈ 2.41 µM) | 0.5 | 4 (≈ 9.63 µM) | 1 (≈ 2.41 µM) |  |  |  |  |  |  |  |  | Ratio of MIC vs vector alone [1]: 0.5; Effect of class B or class D enzymes on potency ([12]; class B or class D β-lactamases): not affected; Effect of the majority of class A and class C enzymes on potency ([12]; majority of class A and class C β-lactamases): not affected; Effect of β-lactamases on potency, compared with the other β-lactams tested ([12]; whole panel, vs aztreonam, tigemonam, carumonam, ceftazidime): least affected; Ratio of MIC vs vector alone [2]: 1; Ratio of MIC vs vector alone [3]: 0.5; Effect of TEM-10 on activity ([4]; only enzyme in the panel with an effect, much less than on other monobactams or ceftazidime): some effect; Ratio of MIC vs vector alone [4]: 8; Ratio of MIC vs vector alone [10]: 2; Ratio of MIC vs vector alone [11]: 0.5; Ratio of MIC vs vector alone [6]: 0.5; Ratio of MIC vs vector alone [7]: 1; Ratio of MIC vs vector alone [8]: 1; Ratio of MIC vs vector alone [9]: 0.5 |
| CC1(C)[C@H](NC(=O)/C(=N\OCC(=O)O)c2csc(N)n2)C(=O)N1OS(=O)(=O)O [TIGEMONAM, tigemonam] |  |  |  |  |  |  |  |  |  | 2 |  |  | 0.5 (≈ 1.14 µM) | 2 (≈ 4.57 µM) | >64 | 0.5 (≈ 1.14 µM) | 32 (≈ 73.2 µM) | 0.5 (≈ 1.14 µM) | 0.25 (≈ 0.572 µM) | 4 (≈ 9.14 µM) | Ratio of MIC vs vector alone [1]: 2; Ratio of MIC vs vector alone [2]: 1; MIC ([2]; strain ECM6704, plasmid pUCP24, vector, MHB, 20 h at 35° C.): 0.25 µg/mL (≈ 0.572 µM); Ratio of MIC vs vector alone [3]: 8; Ratio of MIC vs vector alone [4]: 256; Ratio of MIC vs vector alone [10]: 128; Ratio of MIC vs vector alone [11]: 2; Ratio of MIC vs vector alone [6]: 1; Ratio of MIC vs vector alone [7]: 16; MIC ([8]; strain ECM6716, pUCP24::OXA-48, class D): 0.25 µg/mL (≈ 0.572 µM); Ratio of MIC vs vector alone [8]: 2; MIC [9, 21]: 0.25 µg/mL (≈ 0.572 µM); Ratio of MIC vs vector alone [9]: 2 |
